Read-outs that look alike come from different tables or passages of the source. Where a SMILES comes first, the peptide text is derived from it. Bridges are numbered along the chain shown (N, C = ends). [ ]: non-standard residue; d: D form. The star is where a group is joined. CH3O(CH2CH2O)11CH2CH2CO = COCCOCCOCCOCCOCCOCCOCCOCCOCCOCCOCCOCCC(=O)*; DOTA = O=C(O)CN1CCN(CC(=O)O)CCN(CC(=O)*)CCN(CC(=O)O)CC1; X5 = O=C(O)CN1CCN(CC(=O)O)CCN([C@H](CCC(=O)*)C(=O)O)CC1; Oic = O=C(O)[C@@H]1C[C@@H]2CCCC[C@@H]2N1; Pro(cis-4-F) = O=C(O)[C@@H]1C[C@H](F)CN1; Dopa = N[C@@H](Cc1ccc(O)c(O)c1)C(=O)O; Gly(cPent) = N[C@H](C(=O)O)C1CCCC1; Hyp = O=C(O)[C@@H]1C[C@@H](O)CN1; αMeF = C[C@](N)(Cc1ccccc1)C(=O)O; Pentanoyl(4-Me) = CC(C)CCC(=O)*; Cit = NC(=O)NCCC[C@H](N)C(=O)O; Butoxycarbonyl = CCCCOC(=O)*; hCys = N[C@@H](CCS)C(=O)O; Orn = NCCC[C@H](N)C(=O)O; Nva = CCC[C@H](N)C(=O)O; Pentanoyl = CCCCC(=O)*; AEEA = NCCOCCOCC(=O)O; βAla = NCCC(=O)O

Assay [1] has as its target T1, uPAR-expressing HEC-265 human endometrial adenocarcinoma cells (Homo sapiens, UniProt Q03405).
T1 construct: Cell surface uPAR-expressing HEC-265 human endometrial adenocarcinoma cells; host or cells: HEC-265
In words: Competitive FACS binding assay. The following applies: pIC50 category of FACS binding. Summed up: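 Competitive displacement of a 10 nM biotinylated peptide from HEC-265 cells (1 h, 4 °C, PBS/1% BSA), detected via APC-streptavidin by flow cytometry. pIC50 from four-parameter logistic fit of median fluorescence versus concentration.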

The target in another assay is T2, human uPAR (uPAR-Fc) (Homo sapiens, UniProt Q03405).
T2 construct: comprising amino acids Leu23-Arg303 according to UniProt entry Q03405.1; purchased R&D Systems 10378-UK-100
In words: Surface plasmon resonance (SPR) assay, single cycle kinetics. Format: binding. The following applies: pKD category for uPAR SPR activity assay, uPAR-Fc on Protein A-Chip, 25°C; for Kd: read-out: pKD CAT (converted). Summed up:
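uPAR-Fc (Leu23-Arg303 extracellular domains, human IgG1 Fc) captured on Protein A chip to ~2000 RU; single-cycle kinetics at 25°C in HEPES running buffer pH 7.4 with 0.1% DMSO. KD from double-referenced sensorgrams fitted to 1:1 Langmuir model, reported as pKD.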

T1 sequence (Q03405 23-335): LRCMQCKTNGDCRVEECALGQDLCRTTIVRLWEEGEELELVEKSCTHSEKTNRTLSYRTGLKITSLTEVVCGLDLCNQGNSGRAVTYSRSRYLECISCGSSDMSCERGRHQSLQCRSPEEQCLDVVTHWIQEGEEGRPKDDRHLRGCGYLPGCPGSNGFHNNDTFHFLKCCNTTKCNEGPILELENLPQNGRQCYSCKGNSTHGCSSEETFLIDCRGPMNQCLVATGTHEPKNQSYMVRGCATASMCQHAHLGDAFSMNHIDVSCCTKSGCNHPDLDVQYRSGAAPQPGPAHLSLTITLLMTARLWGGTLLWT
T2 sequence (Q03405 23-303): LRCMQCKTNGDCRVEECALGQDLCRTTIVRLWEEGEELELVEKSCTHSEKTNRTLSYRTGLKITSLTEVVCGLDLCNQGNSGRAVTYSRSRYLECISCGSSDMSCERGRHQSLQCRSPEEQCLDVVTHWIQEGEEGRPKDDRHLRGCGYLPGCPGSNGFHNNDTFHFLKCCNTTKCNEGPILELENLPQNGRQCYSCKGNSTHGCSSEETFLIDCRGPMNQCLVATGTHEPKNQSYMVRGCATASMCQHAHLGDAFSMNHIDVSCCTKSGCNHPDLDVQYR

`CCCCC(=O)N[C@H]1CSSC[C@@H](C(=O)NCCC(N)=O)NC(=O)[C@H](CCC)NC(=O)[C@H]([C@@H](C)CC)NC(=O)[C@@H]2C[C@@H](O)CN2C(=O)[C@@H]2CCCN2C(=O)[C@H](Cc2ccccc2)NC(=O)[C@H](Cc2ccc(O)cc2)NC(=O)[C@H](CCC(N)=O)NC(=O)[C@H](CCCNC(N)=O)NC1=O` [UPAR-353, Pent-[Cys-Cit-Gln-Tyr-Phe-Pro-Hyp-Ile-Nva-Cys]-Bal-NH2] (Pentanoyl-C[Cit]QYFP[Hyp]I[Nva]C[βAla]-NH2; disulfide 1-10) showed an IC50 in assay [1] of 12.6 to 31.6 nM. Besides, on human uPAR (uPAR-Fc) (single cycle kinetics), the Kd is 1.58 to 10 nM.

In assay [1], `CCCCC(=O)N[C@H]1CSSC[C@@H](C(N)=O)NC(=O)[C@H](CCC)NC(=O)[C@H]([C@@H](C)CC)NC(=O)[C@@H](CC(=O)O)NC(=O)[C@@H]2CCCN2C(=O)[C@H](Cc2ccccc2)NC(=O)[C@H](Cc2ccc(O)cc2)NC(=O)[C@H](CCC(N)=O)NC(=O)[C@H](CCCNC(=N)N)NC1=O` [UPAR-161, Pent-[Cys-Arg-Gln-Tyr-Phe-Pro-asp-Ile-Nva-Cys]-NH2] (Pentanoyl-CRQYFP[dD]I[Nva]C-NH2; disulfide 1-10) gave a concentration for half-maximal inhibition (IC50) of at most 10 nM. In addition, the Kd on human uPAR (uPAR-Fc) is 10 to 100 nM.

In assay [1], `CCCCOC(=O)N[C@H]1CSSC[C@@H](C(N)=O)NC(=O)[C@H](CCC)NC(=O)[C@H]([C@@H](C)CC)NC(=O)[C@@H]2C[C@@H](O)CN2C(=O)[C@@H]2C[C@H](F)CN2C(=O)[C@H](Cc2ccccc2)NC(=O)[C@H](Cc2ccc(O)c(O)c2)NC(=O)[C@H](CCCCNC(=O)CC[C@H](C(=O)O)N2CCN(CC(=O)O)CCN(CC(=O)O)CC2)NC(=O)[C@H]([C@@H](C)O)NC1=O` [UPAR-444, Butoc-[Cys-Thr-Lys(NODAGA)-Dopa-Phe-4Cfp-Hyp-Ile-Nva-Cys]-NH2] (Butoxycarbonyl-CTK(X5)[Dopa]F[Pro(cis-4-F)][Hyp]I[Nva]C-NH2; disulfide 1-10) gave an IC50 of at most 10 nM. Also, on human uPAR (uPAR-Fc) (single cycle kinetics), the Kd is under 1.58 nM.

“Pent-[Cys-Cit-Lys(LaDOTA)-Ppa-Phe-Pro-Hyp-Ile-Nva-Cys]-NH2 [UPAR-296]”: the “pIC50 CAT” value in assay [1] is “A (pIC50 values ≥8.0)”. Also, the “pKD CAT” value on human uPAR (uPAR-Fc) is recorded as “A (pKD values ≥ 8.8)”.

Compound `CCCCC(=O)N[C@H]1CCSSC[C@@H](C(N)=O)NC(=O)[C@H](CCC)NC(=O)[C@H]([C@@H](C)CC)NC(=O)[C@@H]2C[C@@H](O)CN2C(=O)[C@@H]2CCCN2C(=O)[C@H](Cc2ccccc2)NC(=O)[C@H](Cc2ccc(O)cc2)NC(=O)[C@H](CCC(N)=O)NC(=O)[C@H](CCCNC(=N)N)NC1=O` [UPAR-300, Pent-[Hcy-Arg-Gln-Tyr-Phe-Pro-Hyp-Ile-Nva-Cys]-NH2] (Pentanoyl-[hCys]RQYFP[Hyp]I[Nva]C-NH2; disulfide 1-10) gave an IC50 in assay [1] of 12.6 to 31.6 nM. In addition, the Kd on human uPAR (uPAR-Fc) was 1.58 to 10 nM.

Take `CC(C)CCC(=O)N[C@H]1CSSC[C@@H](C(N)=O)NC(=O)[C@H](CC(C)C)NC(=O)[C@H](C2CCCC2)NC(=O)[C@@H](C)NC(=O)[C@@H]2CCCN2C(=O)[C@H](Cc2ccccc2)NC(=O)[C@H](Cc2ccc(O)cc2)NC(=O)[C@H](CCC(N)=O)NC(=O)[C@H](CCCNC(N)=O)NC1=O` [UPAR-349, iHex-[Cys-Cit-Gln-Tyr-Phe-Pro-ala-Cpg-Leu-Cys]-NH2] ({Pentanoyl(4-Me)}-C[Cit]QYFP[dA][Gly(cPent)]LC-NH2; disulfide 1-10): the 50% inhibitory concentration (IC50) in assay [1] is at most 10 nM. Also, on human uPAR (uPAR-Fc) (single cycle kinetics), the Kd is 1.58 to 10 nM.

For the compound `CCCCC(=O)N[C@H]1CSSC[C@@H](C(N)=O)NC(=O)[C@H](CCC)NC(=O)[C@H]([C@@H](C)CC)NC(=O)[C@@H]2C[C@@H](O)CN2C(=O)[C@@H]2C[C@@H]3CCCC[C@@H]3N2C(=O)[C@H](Cc2ccccc2)NC(=O)[C@H](Cc2ccc(O)cc2)NC(=O)[C@H](CCC(N)=O)NC(=O)[C@H](CCCNC(=N)N)NC1=O` [UPAR-387, Pent-[Cys-Arg-Gln-Tyr-Phe-Oic-Hyp-Ile-Nva-Cys]-NH2] (Pentanoyl-CRQYF[Oic][Hyp]I[Nva]C-NH2; disulfide 1-10), the concentration for half-maximal inhibition (IC50) in assay [1] is at most 10 nM. The Kd at human uPAR (uPAR-Fc) (single cycle kinetics) was under 1.58 nM.

In turn, `CCC[C@@H]1NC(=O)[C@H]([C@@H](C)CC)NC(=O)[C@@H]2C[C@@H](O)CN2C(=O)[C@@H]2CCCN2C(=O)[C@H](Cc2ccccc2)NC(=O)[C@H](Cc2ccc(O)cc2)NC(=O)[C@H](CCC(N)=O)NC(=O)[C@H](CCCNC(=N)N)NC(=O)[C@@H](NC(=O)[C@H](Cc2ccccc2)NC(=O)CN2CCN(CC(=O)O)CCN(CC(=O)O)CCN(CC(=O)O)CC2)CSSC[C@@H](C(N)=O)NC1=O` [UPAR-223, DOTA-Phe-[Cys-Arg-Gln-Tyr-Phe-Pro-Hyp-Ile-Nva-Cys]-NH2] ({DOTA}-FCRQYFP[Hyp]I[Nva]C-NH2; disulfide 2-11) gave a concentration for half-maximal inhibition (IC50) in assay [1] of 39.8 to 100 nM. Moreover, the Kd on human uPAR (uPAR-Fc) is 10 to 100 nM.

`CCCCC(=O)N[C@H]1CSSC[C@@H](C(N)=O)NC(=O)[C@H](CCC)NC(=O)[C@H]([C@@H](C)CC)NC(=O)[C@@H]2C[C@@H](O)CN2C(=O)[C@@H]2CCCN2C(=O)[C@H](Cc2ccccc2)NC(=O)[C@H](Cc2ccc(O)cc2)NC(=O)[C@H](CCCCNC(=O)CN2CCN(CC(=O)O)CCN(CC(=O)O)CCN(CC(=O)O)CC2)NC(=O)[C@H](CCCNC(=O)CCOCCOCCOCCOCCOCCOCCOCCOCCOCCOCCOCCOC)NC1=O` [UPAR-383, Pent-[Cys-Orn(mPEG12)-Lys(DOTA)-Tyr-Phe-Pro-Hyp-Ile-Nva-Cys]-NHz] (Pentanoyl-C[Orn](CH3O(CH2CH2O)11CH2CH2CO)K(DOTA)YFP[Hyp]I[Nva]C-NH2; disulfide 1-10): the IC50 in assay [1] was at most 10 nM. Also, the Kd on human uPAR (uPAR-Fc) (single cycle kinetics) is under 1.58 nM.

Compound `CC[C@H](C)[C@@H]1NC(=O)[C@@H](C)NC(=O)[C@@H]2CCCN2C(=O)[C@H](Cc2ccccc2)NC(=O)[C@H](Cc2ccc(O)cc2)NC(=O)[C@H](CCC(N)=O)NC(=O)[C@H](CCCNC(=N)N)NC(=O)[C@@H](NC(=O)CCC(C)C)CSSC[C@@H](C(=O)NCCOCCOCC(=O)N[C@@H](CCCCNC(=O)CN2CCN(CC(=O)O)CCN(CC(=O)O)CCN(CC(=O)O)CC2)C(N)=O)NC(=O)[C@H](CC(C)C)NC1=O` [UPAR-449, iHex-[Cys-Arg-Gln-Tyr-Phe-Pro-ala-Ile-Leu-Cys]-O2Oc-Lys(DOTA)-NH2] ({Pentanoyl(4-Me)}-CRQYFP[dA]ILC[AEEA]K(DOTA)-NH2; disulfide 1-10) showed an IC50 in assay [1] of at least 126 nM. In addition, on human uPAR (uPAR-Fc) (single cycle kinetics), the Kd was 1.58 to 10 nM.

As to `CC[C@H](C)[C@@H]1NC(=O)[C@@H](C)NC(=O)[C@@H]2CCCN2C(=O)[C@H](Cc2ccccc2)NC(=O)[C@H](C)NC(=O)[C@H](CCC(N)=O)NC(=O)[C@H](CCCNC(N)=O)NC(=O)[C@@H](NC(=O)CCC(C)C)CSSC[C@@H](C(N)=O)NC(=O)[C@H](CC(C)C)NC1=O` [UPAR-159, iHex-[Cys-Cit-Gln-Ala-Phe-Pro-ala-Ile-Leu-Cys]-NH2] ({Pentanoyl(4-Me)}-C[Cit]QAFP[dA]ILC-NH2; disulfide 1-10), the IC50 in assay [1] was at least 126 nM. In addition, the Kd on human uPAR (uPAR-Fc) is over 100 nM.

`CCCCC(=O)N[C@H]1CSSC[C@@H](C(N)=O)NC(=O)[C@H](CCC)NC(=O)[C@H]([C@@H](C)CC)NC(=O)[C@@H]2C[C@@H](O)CN2C(=O)[C@@H]2CCCN2C(=O)[C@H](Cc2ccccc2)NC(=O)[C@](C)(Cc2ccccc2)NC(=O)[C@H](CCC(N)=O)NC(=O)[C@H](CCCNC(=N)N)NC1=O` [UPAR-478, Pent-[Cys-Arg-Gln-Amf-Phe-Pro-Hyp-Ile-Nva-Cys]-NH2] (Pentanoyl-CRQ[αMeF]FP[Hyp]I[Nva]C-NH2; disulfide 1-10) showed a 50% inhibitory concentration (IC50) in assay [1] of 39.8 to 100 nM. Moreover, at human uPAR (uPAR-Fc) (single cycle kinetics), the Kd was 10 to 100 nM.

As for “Butoc-[Cys-Cit-Lys(LuDOTA)-Tyr-Pcf-4Cfp-Hyp-Chg-Nva-Cys]-NH2 [UPAR-169]”, in assay [1], the “pIC50 CAT” value is reported as “A (pIC50 values ≥8.0)”. Besides, the “pKD CAT” value at human uPAR (uPAR-Fc) is listed as “A (pKD values ≥ 8.8)”.

The values above are taken from patent publication EP4610269A1, “UROKINASE PLASMINOGEN ACTIVATOR SURFACE RECEPTOR (UPAR) LIGANDS FOR DIAGNOSTIC OR THERAPEUTIC USE” (3B Pharmaceuticals GmbH, priority 2024, dated 2025).
